Assay results from ChEMBL document CHEMBL3507680, “University of Dundee, Gates Library screen for HepG2 cell viability”.

Assay: Human HepG2 cell viability assay in 384 well format
Assay type: toxicity, cell-based
Design: dose 125 nL, time 70.5 hour; concentration not given beside the values
Settings: HepG2 cells, read-out: Inhibition

Q: With `O=C(c1ccccn1)N1Cc2ccccc2OC2(CCOCC2)C1` as the compound, how does the cytotoxicity at 70.5 h read?
A: -0.0226%

Q: For `CCCNC(=O)C1(CC2CC(c3ccccc3OC)=NO2)CCOCC1` (stereo not given), which cytotoxicity at 70.5 h is on record?
A: 6.7%

Q: Which cytotoxicity at 70.5 h does the source give for `Nc1cncc(C(=O)N2Cc3ccccc3OC3(CCOCC3)C2)c1` here?
A: 7.99%

Q: For `Cc1nc(N)sc1C(=O)N1Cc2ccccc2OC2(CCOCC2)C1`, which cytotoxicity at 70.5 h is on record?
A: 31.2%

Q: Which cytotoxicity at 70.5 h does the source give for `CCc1cc(C(=O)N2CCC(c3cc4ncccc4cn3)CC2)on1` here?
A: -0.772%

Q: Which cytotoxicity at 70.5 h does the source give for `c1cc(-c2nc(C3CCN(Cc4ccsc4)CC3)no2)ccn1` here?
A: 36.8%

Q: Which cytotoxicity at 70.5 h does the source give for `CCc1onc(C)c1C(=O)N1CCC(c2cc3ncccc3cn2)CC1` here?
A: 9.24%

Q: Which cytotoxicity at 70.5 h does the source give for `Cc1nc(C2CCCN2C(=O)Cc2ccc(F)cc2)nc(O)c1C` (stereo not given) here?
A: 2.83%

Q: With `COCCN(C)C(=O)c1ccccc1-n1cc(CN(C)C)cn1` as the compound, how does the cytotoxicity at 70.5 h read?
A: -5.25%

Q: Which cytotoxicity at 70.5 h does the source give for `Cc1ccccc1CC(=O)N1CC[C@@](O)(CNS(C)(=O)=O)[C@H](O)C1` here?
A: 0.727%

Q: With `CN(C)Cc1cnn(-c2ccccc2C(=O)N(C)Cc2ccccc2)c1` as the compound, how does the cytotoxicity at 70.5 h read?
A: -5.67%

Q: With `Cc1nc(C(=O)N(C)[C@@H]2CCC[C@@H](Oc3ccccc3)[C@@H]2O)co1` as the compound, how does the cytotoxicity at 70.5 h read?
A: 6.12%

Q: Which cytotoxicity at 70.5 h does the source give for `Cc1noc(C)c1-c1ccc(C2CCCN2C(=O)c2cccnc2)nc1` (stereo not given) here?
A: -4.62%

Q: For `COCc1nc(C2CCN(Cc3ncc[nH]3)CC2)no1`, which cytotoxicity at 70.5 h is on record?
A: 6.2%

Q: With `CC(=O)N1CCC(c2ncc3c(n2)CCN(C(=O)c2ccccc2)C3)C1` (stereo not given) as the compound, how does the cytotoxicity at 70.5 h read?
A: -2.46%

Q: Which cytotoxicity at 70.5 h does the source give for `COCC(=O)N1CCCC(Cc2cnc(-c3c(C)n[nH]c3C)cn2)C1` (stereo not given) here?
A: 0.347%

Q: Which cytotoxicity at 70.5 h does the source give for `Cc1nc2ccccn2c1CC(=O)N[C@@H]1CCC[C@@H](N2CCCC2)[C@@H]1O` here?
A: -1.64%

Q: For `CN(C(=O)c1ccn(C)n1)[C@@H]1CCC[C@@H](Oc2ccccc2)[C@@H]1O`, which cytotoxicity at 70.5 h is on record?
A: -4.51%

Q: Which cytotoxicity at 70.5 h does the source give for `O[C@H]1CN(CCOc2ccc(F)cc2)CC[C@@]12CCCO2` here?
A: -2.62%

Q: For `CS(=O)(=O)c1cn[nH]c1C1CCCN1C(=O)c1cccnc1` (stereo not given), which cytotoxicity at 70.5 h is on record?
A: -2.09%

Q: Which cytotoxicity at 70.5 h does the source give for `O=C(N[C@@H]1CCC[C@@H](N2CCOCC2)[C@@H]1O)c1ncccn1` here?
A: 6.75%

Q: With `O=S(=O)(c1ccc(F)cc1)N1CCCC(c2nccs2)C1` (stereo not given) as the compound, how does the cytotoxicity at 70.5 h read?
A: -2.41%

Q: With `O=S(=O)(c1ccccc1)N1CCCC(c2nccs2)C1` (stereo not given) as the compound, how does the cytotoxicity at 70.5 h read?
A: -2%

Q: Which cytotoxicity at 70.5 h does the source give for `COCC(=O)N1CCCC1c1nc(O)cc(C(C)C)n1` (stereo not given) here?
A: 1.53%

Q: Which cytotoxicity at 70.5 h does the source give for `COCCC(=O)N1CCCC1c1nc(O)cc(C(C)C)n1` (stereo not given) here?
A: -0.774%

Q: Which cytotoxicity at 70.5 h does the source give for `CC(C)c1cc(O)nc(C2CCCN2C(=O)C(C)(C)C)n1` (stereo not given) here?
A: 26.4%

Q: For `CC(C)c1cc(O)nc(C2CCCN2C(=O)C2CC2)n1` (stereo not given), which cytotoxicity at 70.5 h is on record?
A: -1.44%

Q: With `CS(=O)(=O)c1cn[nH]c1C1CCCCN1C(=O)c1ccsc1` (stereo not given) as the compound, how does the cytotoxicity at 70.5 h read?
A: -1.64%

Q: Which cytotoxicity at 70.5 h does the source give for `O=S(=O)(c1cccs1)N1CCCC(c2nccs2)C1` (stereo not given) here?
A: -3.29%

Q: For `CC(=O)N1CCC(C(=O)N2CCCC(Cc3ccccn3)C2)CC1` (stereo not given), which cytotoxicity at 70.5 h is on record?
A: -8.43%

Q: Which cytotoxicity at 70.5 h does the source give for `Cc1cc(C)nc(C2CCCN2c2ccnc(C)n2)n1` (stereo not given) here?
A: -0.201%

Q: With `CNC(=O)c1cn[nH]c1C1(C)CCCN(Cc2ccccn2)C1` (stereo not given) as the compound, how does the cytotoxicity at 70.5 h read?
A: -7.3%

Q: With `CCCn1cc(CN2CCCC2c2cccc(-n3ccnc3)n2)cn1` (stereo not given) as the compound, how does the cytotoxicity at 70.5 h read?
A: -7.28%

Q: For `Cc1csc2nc3n(c(=O)c12)CCN(Cc1ccccn1)CC3`, which cytotoxicity at 70.5 h is on record?
A: 2.36%

Q: With `O=C(CCn1c(C(F)(F)F)cc2cccnc21)N1CCCC1` as the compound, how does the cytotoxicity at 70.5 h read?
A: -0.515%

Q: For `COc1ccccc1CNC(Cc1cccs1)c1nc(C)cs1` (stereo not given), which cytotoxicity at 70.5 h is on record?
A: 3.54%

Q: Which cytotoxicity at 70.5 h does the source give for `Cc1nc[nH]c1CN1CCc2nc3scc(C)c3c(=O)n2CC1` here?
A: -1.43%

Q: For `CC(C)c1cc(C(=O)N2CCc3nc(C4CCCN4)ncc3C2)cs1` (stereo not given), which cytotoxicity at 70.5 h is on record?
A: 0.261%

Q: With `Clc1ccccc1OCCc1cc(C2CCNC2)n[nH]1` (stereo not given) as the compound, how does the cytotoxicity at 70.5 h read?
A: -4.47%

Q: With `COc1ccc(C(C)(C)C)cc1CN1CCn2c(CO)nnc2C1` as the compound, how does the cytotoxicity at 70.5 h read?
A: 6.88%

Q: For `Cc1ccc(CN(CCCn2ccnc2)Cc2cc(F)ccc2F)s1`, which cytotoxicity at 70.5 h is on record?
A: 20.3%

Q: With `Cc1ccc(CN(CCCn2ccnc2)Cc2cnc(N(C)C)nc2)s1` as the compound, how does the cytotoxicity at 70.5 h read?
A: 21.5%

Q: With `COc1ccc(F)c(CN(CCCn2ccnc2)Cc2ccc(C)s2)c1` as the compound, how does the cytotoxicity at 70.5 h read?
A: 45.5%

Q: Which cytotoxicity at 70.5 h does the source give for `Cc1ccc(CN(CCCn2ccnc2)Cc2ccccc2O)s1` here?
A: 3.23%

Q: With `Cc1ccc(CN(CCCn2ccnc2)Cc2[nH]cnc2C)s1` as the compound, how does the cytotoxicity at 70.5 h read?
A: 2.51%
